In US20240059698A1 (Accutar Biotechnology Inc., priority 2022, published 2024):

Tests used:
Type in all cases: cell-based
HCC827 cells = test: Cell growth inhibition (CellTiter-Glo), HCC827; conditions: Homo sapiens, 72 h, 3 days
Summary of the method: (§1)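 HCC827 cells in RPMI and A431 cells in DMEM (both 10% FBS) were seeded at 5000 cells/well and left overnight. They were then exposed to compound dilutions for 3 days at 37° C. Viability was read by CellTiter-Glo luminescence.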

[1] = tested on: HCC827-ASV cells (human EGFR exon 20 insertion mutant V769_D770insASV); test: Cell growth inhibition (CellTiter-Glo), HCC827-ASV; conditions: 72 h, HCC827-ASV cells, 3 days, CellTiter-Glo, read-out: Cell growth inhibition, GI50 (nM) HCC827-ASV
Method: Generation of HCC827-SVD, HCC827-ASV, and HCC827-YVMA cell lines. The HCC827-SVD cell line was generated by first transducing HCC827 cells (ATCC) with lentiviral particles expressing codon-optimized human EGFR exon 20 insertion mutant D770_N771insSVD, and then selecting under 5 µg/mL puromycin treatment for a week. The resulting cells were further transduced with lentiviral particles carrying EGFR sgRNA and CAS9 to knockout the endogenous alleles of EGER and then selected under 500 µg/mL hygromycin B treatment for two weeks. The limiting dilution approach was used to subsequently generate the single clone of the HCC827-SVD stable cell line. Endogenous EGFR knockout was confirmed by Sanger sequencing of cell genomic DNA, and expression of exogenous mutant EGFR was verified by Western blot analysis.
HCC827-ASV and HCC827-YVMA cell lines were generated in a similar approach as HCC827-SVD, except that HCC827 cells (ATCC) were first transduced with lentiviral particles expressing codon-optimized human EGFR exon 20 insertion mutant V769_D770insASV and human ERBB2 exon20 insertion mutant A775_G776ins YVMA, respectively.
2. Cell Growth Inhibition for HCC827, HCC827-SVD, HCC827-ASV, HCC827-YVMA, and A431.
HCC827(ATCC), HCC827-SVD, HCC827-ASV, and HCC827-YVMA cells were seeded in 96-well plates at 5000 cells/well in 90 μL of RPMI growth medium containing 10% FBS and 1% Penicillin Streptomycin. A431 (ATCC) cells were seeded in 96-well plates at 5000 cells/well in 90 μL of DMEM growth medium containing 10% FBS and 1% Penicillin Streptomycin. Cells were incubated at 37° C. overnight and then administered with 10 μL 10× test compounds prepared in the growth medium at various concentrations. After administration of the compounds, cells were incubated at 37° C. for 3 days. Before the CellTiter-Glo assay, the plates were equilibrated at room temperature for approximately 30 minutes. 100 ul of CellTiter-Glo reagent (Promega) was added to each well. The plates were then incubated at room temperature for 10 minutes and luminescence was recorded by the EnSight® multimode plate reader (PerkinElmer). Table 7 listed selected compounds in cellular growth assay.

A431 cells = test: Cell growth inhibition (CellTiter-Glo), A431; conditions: Homo sapiens, A-431, 72 h, 3 days
Summary of the method: as §1

[2] = tested on: HCC827-SVD cells (human EGFR exon 20 insertion mutant D770_N771insSVD); test: Cell growth inhibition (CellTiter-Glo), HCC827-SVD; conditions: 72 h, 3 days
Summary of the method: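 HCC827 cells with endogenous EGFR knocked out and lentivirally expressing the insertion mutant (single clone) were seeded at 5000 cells/well in RPMI with 10% FBS. After overnight, compounds added; 3 days at 37 °C, then CellTiter-Glo luminescence.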

[3] = tested on: HCC827-YVMA cells (human ERBB2 exon20 insertion mutant A775_G776ins YVMA); test: Cell growth inhibition (CellTiter-Glo), HCC827-YVMA; conditions: 72 h, HCC827-YVMA cells, 3 days, CellTiter-Glo, read-out: Cell growth inhibition, GI50 (nM) HCC827-YVMA
Summary of the method: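 HCC827 cells transduced with lentiviral codon-optimized mutant (ERBB2 A775_G776insYVMA or EGFR V769_D770insASV), endogenous EGFR knocked out by CRISPR, single clone selected. Cells seeded overnight in RPMI/10% FBS, then exposed to serially diluted compounds at 37 °C for 3 days; viability read by CellTiter-Glo luminescence.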

Row | GI50 (HCC827 cells) [nM] | GI50 [1] [nM] | GI50 (A431 cells) [nM] | GI50 [2] [nM] | GI50 [3] [nM] | SMILES
1 | 200 to 1000 | < 50 | > 1000 | 50 to 200 | < 50 | C=CC(=O)N1CCC(c2n[nH]c3ncnc(Nc4ccc(Oc5ccnc(N6CCC(C(F)(F)F)C6)c5)cc4F)c23)CC1 (stereo not drawn) [Compound 173, 1-(4-(4-((2-fluoro-4-((2-(3-(trifluoromethyl)pyrrolidin-1-yl)pyridin-4-yl)oxy)phenyl)amino)-1H-pyrazolo[3,4-d]pyrimidin-3-yl)piperidin-1-yl)prop-2-en-1-one]
2 | > 1000 | 50 to 200 | > 1000 | 50 to 200 | 50 to 200 | C=CC(=O)N1CCC(c2n[nH]c3ncnc(Nc4ccc(Oc5ccnc(N6CCC(F)(F)C6)c5)cc4F)c23)CC1 [Compound 175, 1-(4-(4-((4-((2-(3,3-difluoropyrrolidin-1-yl)pyridin-4-yl)oxy)-2-fluorophenyl)amino)-1H-pyrazolo[3,4-d]pyrimidin-3-yl)piperidin-1-yl)prop-2-en-1-one]
3 | 200 to 1000 | 50 to 200 | > 1000 | 50 to 200 | < 50 | C=CC(=O)N1CCC(c2n[nH]c3ncnc(Nc4ccc(Oc5ccnc(N6CC7CC7C6)c5)cc4F)c23)CC1 (stereo not drawn) [Compound 180, 1-(4-(4-((4-((2-(3-azabicyclo[3.1.0]hexan-3-yl)pyridin-4-yl)oxy)-2-fluorophenyl)amino)-1H-pyrazolo[3,4-d]pyrimidin-3-yl)piperidin-1-yl)prop-2-en-1-one]
4 | > 1000 | > 1000 | > 1000 | > 1000 | 200 to 1000 | C=CC(=O)N1CCC(c2ccn3ncnc(Nc4ccc(Oc5ccn(Cc6cc(C)ccn6)n5)cc4F)c23)CC1 [Compound 197, 1-(4-(4-((2-fluoro-4-((1-((4-methylpyridin-2-yl)methyl)-1H-pyrazol-3-yl)oxy)phenyl)amino)pyrrolo[2,1-f][1,2,4]triazin-5-yl)piperidin-1-yl)prop-2-en-1-one]
5 | > 1000 | > 1000 | > 1000 | > 1000 | 200 to 1000 | C=CC(=O)N1CCC(c2ccn3ncnc(Nc4ccc(Oc5ccnc(N6CCN(C)CC6)c5)cc4F)c23)CC1 [Compound 201, 1-(4-(4-((2-fluoro-4-((2-(4-methylpiperazin-1-yl)pyridin-4-yl)oxy)phenyl)amino)pyrrolo[2,1-f][1,2,4]triazin-5-yl)piperidin-1-yl)prop-2-en-1-one]

Second part, the compound before the results:

Row | SMILES | GI50 (HCC827 cells) [nM] | GI50 [1] [nM] | GI50 (A431 cells) [nM] | GI50 [2] [nM] | GI50 [3] [nM]
6 | C=CC(=O)N1CCC(c2n[nH]c3ncnc(Nc4ccc(Oc5ccnc(N6CC(O)(C(F)(F)F)C6)c5)cc4F)c23)CC1 [Compound 177, 1-(4-(4-((2-fluoro-4-((2-(3-hydroxy-3-(trifluoromethyl)azetidin-1-yl)pyridin-4-yl)oxy)phenyl)amino)-1H-pyrazolo[3,4-d]pyrimidin-3-yl)piperidin-1-yl)prop-2-en-1-one] | > 1000 | 200 to 1000 | > 1000 | 200 to 1000 | 50 to 200
7 | C=CC(=O)N1CCC(c2ccn3ncnc(Nc4ccc(OCc5ccccn5)c(Cl)c4)c23)CC1 [Compound 198, 1-(4-(4-((3-chloro-4-(pyridin-2-ylmethoxy)phenyl)amino)pyrrolo[2,1-f][1,2,4]triazin-5-yl)piperidin-1-yl)prop-2-en-1-one] | < 50 | < 50 | < 50 | < 50 | < 50
8 | C=CC(=O)N1CCC(c2ccn3ncnc(Nc4ccc(Oc5ccnc(N6C[C@@H](C)O[C@@H](C)C6)c5)cc4F)c23)CC1 [Compound 199, 1-(4-(4-((4-((2-((2R,6S)-2,6-dimethylmorpholino)pyridin-4-yl)oxy)-2-fluorophenyl)amino)pyrrolo[2,1-f][1,2,4]triazin-5-yl)piperidin-1-yl)prop-2-en-1-one] | 50 to 200 | < 50 | > 1000 | < 50 | < 50
9 | C=CC(=O)N1CCC(c2ccn3ncnc(Nc4ccc(Oc5ccnc(N6CCC[C@@H](OC)C6)c5)cc4F)c23)CC1 [Compound 202, (R)-1-(4-(4-((2-fluoro-4-((2-(3-methoxypiperidin-1-yl)pyridin-4-yl)oxy)phenyl)amino)pyrrolo[2,1-f][1,2,4]triazin-5-yl)piperidin-1-yl)prop-2-en-1-one] | > 1000 | 200 to 1000 | > 1000 | 50 to 200 | 50 to 200
